In patent publication US9254283B2, “Therapeutic agent for migraine” (priority 2008, dated 2016):

Tested on: cerebral vascular smooth muscle (basilar arteries)
Assay: Cerebral vasoconstriction effect: inhibition of adenosine-induced relaxation of isolated basilar artery rings
Conditions: dog basilar artery rings
Method: Dogs were anesthetized by intravenous administration of sodium pentobarbital, exsanguinated by decapitation and subjected to craniotomy. The basilar arteries were removed, and ring specimens of cerebral vascular smooth muscle measuring about 2 mm in width were prepared. Each ring specimen was fixed to an injection needle (cut into a 2-mm piece) with a silk thread. The injection needle was fixed to a holder installed in an Easy Magnus Device (Model: UC-2; Kishimoto Medical Instruments), and the specimen was allowed to stabilize for 60 minutes or more under a resting tension of 0.2 g (1.96 mN) in a 37° C. nutritive solution. […] Separately, in the same manner as in the test compound-administered group, dimethylsulfoxide alone was cumulatively added in place of the test compound (solvent-added group). The contraction of the cerebral vascular smooth muscle was then recorded on a recorder (Yokogawa Electric Corporation) from a transducer (Nihon Kohden Corporation) connected to the holder, to which the specimen was fixed, via a strain pressure amplifier (Nihon Kohden Corporation) (n=6). […] The cerebral vasoconstriction effect was determined as the percentage inhibition (%) of the adenosine-induced cerebral vascular smooth muscle relaxation, and comparison was made between the test compound-added group and the solvent-added group.

Row | Structure (SMILES) | inhibition at 0.01 µM (Canis lupus familiaris, 10 nmol/L, n=6, solvent-added group 0.6±7.6%, read-out: percentage inhibition of the adenosine-induced cerebral vascular smooth muscle relaxation) [%] | suppressing effect on adenosine-induced cerebral vascular smooth muscle relaxation (in words) (versus solvent-added group)
1 | Cc1ccc(C(=O)Nc2nc(-c3ccco3)c(C(=O)C3CCOCC3)s2)cn1 [(IIC)] | 97.4 ± 1.8 | 
2 | CC(C)(O)CCN1CCN(c2cc3nc(-c4ccco4)nn3c(N)n2)CC1 [Compound (IB)] |  | confirmed
